# Patent US8257921B1, “NRIP1 regulation of apolipoprotein A1” (Schering Corporation, priority 2008, dated 2012)
# Columns and labels:
# apoA1 mRNA [1] = conditions: HepG2 cells; Haghpassand et al. 1995; cited from earlier work
# apoA1 mRNA [2] = assay: apoA1 mRNA by RT-qPCR in transfected HepG2 cells; type: cell-based, human; conditions: for apoA1 mRNA levels: individual NRIP1 Dicer substrate dsiRNA duplexes (FIG. 8)
# Description: Pools of siRNAs that were targeted to NRIP1 (#27) and 32 other transcription modulators were transfected into cultured HepG2 cell along with experimental controls apoA1 siRNA (siApoA1), siRNA non-targeting control (siNT) and transfection media without siRNA (HepG2). […] Each siRNA was designed and synthesized by Dharmacon to interact in a sequence specific manner with the target mRNA and suppress gene expression. For NRIP1, the following siRNA duplexes were used based on the NRIP1 sequence found under GenBank Accession no. NM_173440.
# Cultured human hepatoma cell line HepG2 cells were seeded in 6-well plates at a density of 4E5 (i.e., 4×10^5) cells/well in antibiotic free 10% FBS/MEME and cultured for 16 hours. siRNA (20 μM) was prepared by diluting to 2 μM with buffer. To that, equal amounts Opti-MEM medium was added, mixed and kept at room temperature (RT) for 5 minutes. Transfection lipid was prepared using DharmaFECT 4 transfection reagent X25 times diluted with Opti-MEM medium (4 μL/100 medium), mixed and kept at RT for 5 minutes. siRNA and transfection lipid were complexed by mixing equal volumes and incubated for 20 minutes at RT. […]
# Forty-eight hours post transfection, medium was removed from transfected HepG2 culture and assessed for secreted apoA1 levels using a human apoA1 sandwich ELISA (MabTech) as described by the manufacturer. […]
# HepG2 cells were transfected with varying concentrations of pooled NRIP1 siRNA as described in Example 1, except that 24 hours post transfection 10 μM 9 cis-retinoic acid was added to the growth medium. Cells were harvested 24 hours later and apoA1 and NRIP1 mRNA levels measured as previously described. […]
# HepG2 cells were transfected with four individual NRIP1 siRNA duplexes at a concentration of 100 nM or a pool of all four siRNAs at a final concentration 100 nM following the protocol previously described. […] In FIG. 6, expression levels of NRIP1 gene expression were similarly evaluated. […]
# NRIP1 target mRNA = assay: NRIP1 mRNA by RT-qPCR in transfected HepG2 cells; type: cell-based, human; conditions: for NRIP1 gene expression (suppression): individual siRNA duplexes 100 nM, vs siNT and lipid controls (FIG. 6); for NRIP1 target gene expression, dose response: 4-fold dilutions from 100 nM to 1.56 nM (FIG. 7)
# Experimental: Cultured human hepatoma cell line HepG2 cells were seeded in 6-well plates at a density of 4E5 (i.e., 4×10^5) cells/well in antibiotic free 10% FBS/MEME and cultured for 16 hours. siRNA (20 μM) was prepared by diluting to 2 μM with buffer. To that, equal amounts Opti-MEM medium was added, mixed and kept at room temperature (RT) for 5 minutes. Transfection lipid was prepared using DharmaFECT 4 transfection reagent X25 times diluted with Opti-MEM medium (4 μL/100 medium), mixed and kept at RT for 5 minutes. siRNA and transfection lipid were complexed by mixing equal volumes and incubated for 20 minutes at RT. Cultured HepG2 cells in 6-sell plates were changed into fresh antibiotic free 10% FBS/MEME (1.6 mL/well) and 400 complexed siRNA was added to each well to a final concentration of 100 nM and incubated for 48 hrs.
# HepG2 cells were transfected with varying concentrations of pooled NRIP1 siRNA as described in Example 1, except that 24 hours post transfection 10 μM 9 cis-retinoic acid was added to the growth medium. Cells were harvested 24 hours later and apoA1 and NRIP1 mRNA levels measured as previously described. RT-qPCR was performed as described (Zhu et al., Analytical Biochemistry 345:102-109 (2005)) using the following NRIP1 specific primer/probes:
# HepG2 cells were transfected with four individual NRIP1 siRNA duplexes at a concentration of 100 nM or a pool of all four siRNAs at a final concentration 100 nM following the protocol previously described. Following isolation of total RNA, RT-qPCR was performed for apoA1 and NRIP1 gene expression. FIG. 5 compared apoA1 mRNA gene expression for siRNA samples to the siNT and lipid controls. In FIG. 6, expression levels of NRIP1 gene expression were similarly evaluated.
# The differential effectiveness of individual sequence specific RNAi molecules to inhibit gene expression is well documented (Soutschek et al., Nature 432: 173-178 (2004)). […] The NRIP1 siRNA #5 and #8 were compare using 4-fold dilutions from 100 nM to 1.56 nM.
Compound,apoA1 mRNA levels (apoA1 mRNA [2]),NRIP1 gene expression (suppression) (NRIP1 target mRNA),"NRIP1 target gene expression, dose response (NRIP1 target mRNA)",other results
"CC1=C(/C=C/C(C)=C\C=C\C(C)=C\C(=O)O)C(C)(C)CCC1 [9CRA, 9-cis retinoic acid]",,,,endogenous apoA1 gene expression (apoA1 mRNA [1]): stimulates
"dsi#27-1: NRIP1 Dicer substrate RNAi duplex (IDT): sense 5′-AGACUAUACCUAAGCCAAUGAAUGG, antisense 5′-CCAUUCAUUGGCUUAGGAUAGUCUGG",elevated,,,
"dsi#27-2: NRIP1 Dicer substrate RNAi duplex (IDT): sense 5′-AGGAGUCACAGAAAUAAUGAAAUGG, antisense 5′-CCAUUUCAUUAUUUCUGUGACUCCUGU",elevated,,,
"oligo #7: NRIP1 siRNA duplex: sense GGACUGGAAUGCAGCAAAGUU (SEQ ID NO: 14), antisense 5′P-CUUUGCUGCAUUCCAGUCCUU (SEQ ID NO: 15) (5' phosphate on antisense, further chemistry not given here)",,least effective,,"apoA1 mRNA gene expression (induction) (apoA1 mRNA [2]; individual siRNA duplexes 100 nM, vs siNT and lipid controls (FIG. 5)): least effective"
"siRNA #5: NRIP1 siRNA duplex: sense GAAGCGUGCUAACGAUAAAUU (SEQ ID NO: 7), antisense 5′P-UUUAUCGUUAGCACGCUUCUU (SEQ ID NO: 12) (5' phosphate on antisense strand, further chemistry not given here)",,most effective,inhibited better by siRNA #8 over siRNA #5,
"siRNA #8: NRIP1 siRNA duplex: sense AUACGAAUCUUCCUGAUGUUU (SEQ ID NO: 9), antisense 5′P-ACAUCAGGAAGAUUCGUAUUU (SEQ ID NO: 16) (5' phosphate on antisense strand, further chemistry not given here)",,most effective,inhibited better,
